This is an account of results in US20100305053A1, “USE OF […] OF A DERIVATIVE THEREOF FOR THE PREVENTION AND/OR TREATMENT OF SLACKENED SKIN” (L'OREAL, priority 2007, published 2010).

Test [1] has as its system collagen IV. Kind of test: Collagen IV immunolabeling (immunofluorescence) of skin sections after 24 weeks of dietary hesperidin. As to conditions: for Number of sections (out of 12) with medium and strong labeling of the DEJ / % of sections with medium and strong labeling of the DEJ: collagen IV; for Number of sections (out of 12) with medium and strong labeling of the DEJ: control group E: 6; for % of sections with medium and strong labeling of the DEJ: control group E: 50. In kind it is in vivo. The protocol: (§1) The study was carried out on elderly, healthy individuals subjected, for 24 weeks, to a diet optionally comprising hesperidin.
(§2) The first group of individuals (group E) is a control group subjected to a standard diet free of hesperidin.
(§3) The second group of individuals (group F) is a group subjected to a diet comprising 0.1% by weight of hesperidin relative to the standard diet, which corresponds to 50 mg of hesperidin per kg of body weight of the individual and per day.
(§4) The third group of individuals (group G) is a group subjected to a standard diet comprising 0.5% by weight of hesperidin relative to the standard diet, which corresponds to 250 mg of hesperidin per kg of body weight of the individual and per day.
(§5) Skin samples were taken and analyzed in order to study, by immunofluorescence, the expression of the collagen IV and collagen VII skin markers characteristic of the dermoepidermal junction.
The immunolabeling of collagen IV is carried out by immunohistochemistry with an “anticollagen type IV polyclonal” primary antibody [Rockland (sold by Tebu-Bio), dilution 1/50] and an “anti-rabbit FITC” secondary antibody [Santa Cruz, dilution 1/100].
The labeling was carried out on frozen sections 5 μm thick derived from skin samples.
The slides were recovered in PBS for five minutes, incubated with the primary antibody for one hour at ambient temperature in the dark, rinsed in PBS twice for five minutes, then incubated with the secondary antibody for one hour at ambient temperature in the dark, and then again rinsed in PBS twice for five minutes.
The slides were then mounted with Vectashield (Vector) containing DAPI ([…]), and then covered with a coverslip.

For test [2], the system named is collagen VII. The test is described as follows: Collagen VII immunolabeling (immunofluorescence) of skin sections after 24 weeks of dietary hesperidin. In kind it is in vivo. As to conditions: for Number of sections (out of 12) with labeling of the DEJ and labeling in the papillary dermis / % of sections with labeling of the DEJ and labeling in the papillary dermis: collagen VII; for Number of sections (out of 12) with labeling of the DEJ and labeling in the papillary dermis: control group E: 3; for % of sections with labeling of the DEJ and labeling in the papillary dermis: control group E: 25. The protocol:
as §1, §2, §3, §4, §5
The collagen VII immunolabeling is carried out as indicated previously, but using “anticollagen type VII polyclonal” [EUROMEDEX (sold by Chemicon), dilution 1/500] as primary antibody and “anti-mouse Ig FITC” [Dake, dilution 1/100] as secondary antibody.

Setting [3] is: group F, diet with 0.1% by weight hesperidin (50 mg/kg/day), 24 weeks.
The mark [4] stands for this setting: group G, diet with 0.5% by weight hesperidin (250 mg/kg/day), 24 weeks.

`COc1ccc([C@@H]2CC(=O)c3c(O)cc(O[C@@H]4O[C@H](CO[C@@H]5O[C@@H](C)[C@H](O)[C@@H](O)[C@H]5O)[C@@H](O)[C@H](O)[C@H]4O)cc3O2)cc1O` [Hesperidin, (S)-7-[[6-O-(6-deoxy-α-L-mannopyranosyl)-β-D-glucopyranosyl]oxy]-2,3-dihydro-5-hydroxy-2-(3-hydroxy-4-methoxyphenyl)-4H-1-benzopyran-4-one]: in test [1] (setting [3]), the “Number of sections (out of 12) with medium and strong labeling of the DEJ” value was determined as 7; the “% of sections with medium and strong labeling of the DEJ” value is given as 58%. For the same compound, in test [1] (setting [4]), the “Number of sections (out of 12) with medium and strong labeling of the DEJ” value worked out at 12; the “% of sections with medium and strong labeling of the DEJ” value is 100%. Moreover, the “Effect on collagen network in the dermal tissue and collagen IV expression (conclusion)” value in test [1] (oral, diet, 24 weeks) is reported as “increase in the expression of the collagen IV”. For the same compound, the “Expression of collagen IV in the basal lamina compared with the control” value in test [1] (the two treated groups (F and G), FIG. 1) is listed as “greater expression of collagen IV”. In addition, in test [2] (setting [3]), the “Number of sections (out of 12) with labeling of the DEJ and labeling in the papillary dermis” value was 6; the “% of sections with labeling of the DEJ and labeling in the papillary dermis” value worked out at 50%. In addition, in test [2] (setting [4]), the “Number of sections (out of 12) with labeling of the DEJ and labeling in the papillary dermis” value amounted to 11; the “% of sections with labeling of the DEJ and labeling in the papillary dermis” value amounted to 92%. In addition, in test [2] (more particularly group G (0.5% hesperidin diet), FIG. 2), the “Collagen VII fluorescence intensity at the DEJ and in the papillary dermis” value was “increase in fluorescence intensity”. In test [2] (oral, diet, 24 weeks), the “Effect on collagen network in the dermal tissue and collagen VII expression (conclusion)” value is listed as “increase in the expression of collagen VII”.
